Data reported in ChEMBL document CHEMBL1641449, “A novel transition state analog inhibitor of guanase based on azepinomycin ring structure: Synthesis and biochemical assessment of enzyme inhibition” (Bioorg Med Chem Lett, 2011).

Biological target: T1, Guanine deaminase (Homo sapiens, UniProt Q9Y2T3)
T1 sequence (Q9Y2T3 whole entry): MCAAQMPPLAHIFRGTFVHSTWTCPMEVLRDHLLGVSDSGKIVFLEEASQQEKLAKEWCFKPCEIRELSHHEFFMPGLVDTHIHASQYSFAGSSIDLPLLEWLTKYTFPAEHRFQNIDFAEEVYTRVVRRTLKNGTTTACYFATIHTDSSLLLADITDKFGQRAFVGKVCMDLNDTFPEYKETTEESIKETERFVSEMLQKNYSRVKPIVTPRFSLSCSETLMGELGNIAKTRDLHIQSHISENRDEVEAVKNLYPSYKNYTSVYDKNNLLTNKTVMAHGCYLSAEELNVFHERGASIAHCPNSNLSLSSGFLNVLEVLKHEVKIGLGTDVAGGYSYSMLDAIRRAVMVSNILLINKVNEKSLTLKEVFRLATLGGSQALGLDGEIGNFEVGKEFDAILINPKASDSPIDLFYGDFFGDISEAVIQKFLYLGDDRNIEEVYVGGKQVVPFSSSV
Test: Competitive inhibition of guanase by Lineweaver-Burk plot analysis

Ki: 16.7 µM
Compound: O=C(NC1(CO)NC(=O)c2ncn(Cc3ccccc3)c2NC1=O)OCc1ccccc1 (stereo unspecified)
